Experimental data: PubChem BioAssay AID1963968 (Molecular Pharmacology Branch, DTP, NCI, 2024)
Several values for one entry are separate records, joined by “and”; a condition that tells them apart may be missing. Equal values may be shown once.

Tested on: 945468-187-T-J3-PDC spheroids with HUVEC/MSC, viability
Test: Anticancer human tumor 945468-187-T-J3-PDC patient-derived rectal carcinoma cell line growth inhibition [PI3K]
Conditions: for viability, T/C: stronger effect = lower value
In short: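 Spheroid viability read-out. Co-cultures contained the tumor line plus HUVEC and human MSCs. Each agent was paired with a PI3K inhibitor (inavolisib, alpelisib, duvelisib, copanlisib) across half-log dilutions starting at clinical Cmax, or at 10 microM when Cmax was unknown.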

[1] = curve of first compound, second compound 0.0316 µM
[2] = curve of first compound, second compound 0.1 µM
[3] = curve of first compound, second compound 0.316 µM
[4] = curve of first compound, second compound 1 µM
[5] = curve of first compound, second compound 3.16 µM
[6] = curve of first compound, second compound 10 µM
[7] = second compound 0.0316 µM, first compound 0.000316 µM
[8] = second compound 0.0316 µM, first compound 0.001 µM
[9] = second compound 0.0316 µM, first compound 0.00316 µM
[10] = second compound 0.0316 µM, first compound 0.01 µM
[11] = second compound 0.0316 µM, first compound 0.0316 µM
[12] = second compound 0.0316 µM, first compound 0.1 µM
[13] = second compound 0.1 µM, first compound 0.000316 µM
[14] = second compound 0.1 µM, first compound 0.001 µM
[15] = second compound 0.1 µM, first compound 0.00316 µM
[16] = second compound 0.1 µM, first compound 0.01 µM
[17] = second compound 0.1 µM, first compound 0.0316 µM
[18] = second compound 0.1 µM, first compound 0.1 µM
[19] = second compound 0.316 µM, first compound 0.000316 µM
[20] = second compound 0.316 µM, first compound 0.001 µM
[21] = second compound 0.316 µM, first compound 0.00316 µM
[22] = second compound 0.316 µM, first compound 0.01 µM
[23] = second compound 0.316 µM, first compound 0.0316 µM
[24] = second compound 0.316 µM, first compound 0.1 µM
[25] = second compound 1 µM, first compound 0.000316 µM
[26] = second compound 1 µM, first compound 0.001 µM
[27] = second compound 1 µM, first compound 0.00316 µM
[28] = second compound 1 µM, first compound 0.01 µM
[29] = second compound 1 µM, first compound 0.0316 µM
[30] = second compound 1 µM, first compound 0.1 µM
[31] = second compound 3.16 µM, first compound 0.000316 µM
[32] = second compound 3.16 µM, first compound 0.001 µM
[33] = second compound 3.16 µM, first compound 0.00316 µM
[34] = second compound 3.16 µM, first compound 0.01 µM
[35] = second compound 3.16 µM, first compound 0.0316 µM
[36] = second compound 3.16 µM, first compound 0.1 µM
[37] = second compound 10 µM, first compound 0.000316 µM
[38] = second compound 10 µM, first compound 0.001 µM
[39] = second compound 10 µM, first compound 0.00316 µM
[40] = second compound 10 µM, first compound 0.01 µM
[41] = second compound 10 µM, first compound 0.0316 µM
[42] = second compound 10 µM, first compound 0.1 µM
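Note: spheroids exposed to agents for 7 days before viability read.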
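Throughout, for viability, T/C: 100% = DMSO vehicle control viability.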

CC(C)n1nc(-c2ccc3oc(N)nc3c2)c2c(N)ncnc21 + CC(Nc1ncnc2nc[nH]c12)c1cc2cccc(Cl)c2c(=O)n1-c1ccccc1
IC50 [1]: > 0.1 µM | IC50 [2]: > 0.1 µM | IC50 [3]: > 0.1 µM | IC50 [4]: > 0.1 µM | IC50 [5]: 0.0877 µM | IC50 [6]: 0.0707 µM | viability, T/C [7]: 105% | viability, T/C [8]: 101% | viability, T/C [9]: 95% | viability, T/C [10]: 99.1% | viability, T/C [11]: 93.2% | viability, T/C [12]: 62.2% | viability, T/C [13]: 122% | viability, T/C [14]: 103% | viability, T/C [15]: 101% | viability, T/C [16]: 91.9% | viability, T/C [17]: 105% | viability, T/C [18]: 50.5% | viability, T/C [19]: 99% | viability, T/C [20]: 89.1% | viability, T/C [21]: 102% | viability, T/C [22]: 97.1% | viability, T/C [23]: 104% | viability, T/C [24]: 59.5% | viability, T/C [25]: 99.7% | viability, T/C [26]: 98.4% | viability, T/C [27]: 98.3% | viability, T/C [28]: 112% | viability, T/C [29]: 96% | viability, T/C [30]: 51.1% | viability, T/C [31]: 104% | viability, T/C [32]: 89.8% | viability, T/C [33]: 99.1% | viability, T/C [34]: 101% | viability, T/C [35]: 103% | viability, T/C [36]: 43.6% | viability, T/C [37]: 103% | viability, T/C [38]: 96.9% | viability, T/C [39]: 93.5% | viability, T/C [40]: 87% | viability, T/C [41]: 89.3% | viability, T/C [42]: 33.7%

CNC(=O)c1ccc(N2C(=S)N(c3ccc(C#N)c(C(F)(F)F)c3)C(=O)C2(C)C)cc1F
viability, T/C (compound 0.0316 µM): 100% (2×) and 113% and 95% | viability, T/C (compound 0.1 µM): 108% [middle of 4 runs] | viability, T/C (compound 0.316 µM): 104% [middle of 4 runs] | viability, T/C (compound 3.16 µM): 113% (2×) and 102% and 121% | viability, T/C (compound 10 µM): 109% [middle of 4 runs] | IC50 (curve of compound): > 10 µM

CC(C)n1nc(-c2ccc3oc(N)nc3c2)c2c(N)ncnc21 + Cc1nc(NC(=O)N2CCCC2C(N)=O)sc1-c1ccnc(C(C)(C)C(F)(F)F)c1
IC50 [1]: > 0.1 µM | IC50 [2]: > 0.1 µM | IC50 [3]: > 0.1 µM | IC50 [4]: 0.077 µM | IC50 [5]: 0.0302 µM | IC50 [6]: 0.0107 µM | viability, T/C [7]: 105% | viability, T/C [8]: 118% | viability, T/C [9]: 98.8% | viability, T/C [10]: 114% | viability, T/C [11]: 127% | viability, T/C [12]: 65.5% | viability, T/C [13]: 109% | viability, T/C [14]: 109% | viability, T/C [15]: 95.4% | viability, T/C [16]: 115% | viability, T/C [17]: 118% | viability, T/C [18]: 54.5% | viability, T/C [19]: 113% | viability, T/C [20]: 104% | viability, T/C [21]: 97.5% | viability, T/C [22]: 121% | viability, T/C [23]: 111% | viability, T/C [24]: 53.3% | viability, T/C [25]: 116% | viability, T/C [26]: 114% | viability, T/C [27]: 101% | viability, T/C [28]: 109% | viability, T/C [29]: 84% | viability, T/C [30]: 39.6% | viability, T/C [31]: 108% | viability, T/C [32]: 104% | viability, T/C [33]: 102% | viability, T/C [34]: 77.2% | viability, T/C [35]: 49.9% | viability, T/C [36]: 29.7% | viability, T/C [37]: 68% | viability, T/C [38]: 53.3% | viability, T/C [39]: 64.3% | viability, T/C [40]: 50.2% | viability, T/C [41]: 31.8% | viability, T/C [42]: 22.7%

Cn1nccc1Nc1nccc(-c2ccn(C(CO)c3ccc(Cl)c(F)c3)c(=O)c2)n1 (stereo not given) + COc1c(OCCCN2CCOCC2)ccc2c3n(c(=NC(=O)c4cnc(N)nc4)nc12)CCN3
IC50 (curve of first compound, second compound 0.00316 µM): > 10 µM | IC50 (curve of first compound, second compound 0.01 µM): > 10 µM | IC50 [1]: > 10 µM | IC50 [2]: < 0.0316 µM | IC50 [3]: < 0.0316 µM | IC50 [4]: < 0.0316 µM | viability, T/C (second compound 0.00316 µM, first compound 0.0316 µM): 95.1% | viability, T/C (second compound 0.00316 µM, first compound 0.1 µM): 93% | viability, T/C (second compound 0.00316 µM, first compound 0.316 µM): 102% | viability, T/C (second compound 0.00316 µM, first compound 1 µM): 98.9% | viability, T/C (second compound 0.00316 µM, first compound 3.16 µM): 109% | viability, T/C (second compound 0.00316 µM, first compound 10 µM): 111% | viability, T/C (second compound 0.01 µM, first compound 0.0316 µM): 97.5% | viability, T/C (second compound 0.01 µM, first compound 0.1 µM): 87.7% | viability, T/C (second compound 0.01 µM, first compound 0.316 µM): 119% | viability, T/C (second compound 0.01 µM, first compound 1 µM): 97.5% | viability, T/C (second compound 0.01 µM, first compound 3.16 µM): 123% | viability, T/C (second compound 0.01 µM, first compound 10 µM): 104% | viability, T/C [11]: 97.7% | viability, T/C [12]: 85% | viability, T/C (second compound 0.0316 µM, first compound 0.316 µM): 93.5% | viability, T/C (second compound 0.0316 µM, first compound 1 µM): 85.6% | viability, T/C (second compound 0.0316 µM, first compound 3.16 µM): 83.4% | viability, T/C (second compound 0.0316 µM, first compound 10 µM): 66% | viability, T/C [17]: 49.7% | viability, T/C [18]: 44.1% | viability, T/C (second compound 0.1 µM, first compound 0.316 µM): 55.6% | viability, T/C (second compound 0.1 µM, first compound 1 µM): 43.9% | viability, T/C (second compound 0.1 µM, first compound 3.16 µM): 40.5% | viability, T/C (second compound 0.1 µM, first compound 10 µM): 42.8% | viability, T/C [23]: 20.9% | viability, T/C [24]: 18.9% | viability, T/C (second compound 0.316 µM, first compound 0.316 µM): 18.2% | viability, T/C (second compound 0.316 µM, first compound 1 µM): 19.4% | viability, T/C (second compound 0.316 µM, first compound 3.16 µM): 15.3% | viability, T/C (second compound 0.316 µM, first compound 10 µM): 14.5% | viability, T/C [29]: 14.9% | viability, T/C [30]: 15.5% | viability, T/C (second compound 1 µM, first compound 0.316 µM): 11.3% | viability, T/C (second compound 1 µM, first compound 1 µM): 9.48% | viability, T/C (second compound 1 µM, first compound 3.16 µM): 8.78% | viability, T/C (second compound 1 µM, first compound 10 µM): 7.89%

CC1(C)CCC(CN2CCN(c3ccc(C(=O)NS(=O)(=O)c4ccc(NCC5CCOCC5)c([N+](=O)[O-])c4)c(Oc4cnc5[nH]ccc5c4)c3)CC2)=C(c2ccc(Cl)cc2)C1
viability, T/C (compound 0.0316 µM): 105% [middle of 4 runs] | viability, T/C (compound 0.1 µM): 110% [middle of 4 runs] | viability, T/C (compound 0.316 µM): 101% [middle of 4 runs] | viability, T/C (compound 1 µM): 112% [middle of 4 runs] | viability, T/C (compound 3.16 µM): 130% [middle of 4 runs] | IC50 (curve of compound): > 10 µM and 7.28 µM and 6.4 µM

Cn1ncnc1[C@H]1c2n[nH]c(=O)c3cc(F)cc(c23)N[C@@H]1c1ccc(F)cc1
viability, T/C (compound 0.000316 µM): 101% and 102% and 91.8% | viability, T/C (compound 0.001 µM): 91.2% and 106% and 101% | viability, T/C (compound 0.00316 µM): 99.4% and 89% and 90.5% | viability, T/C (compound 0.01 µM): 86.2% and 91.3% and 94.7% | viability, T/C (compound 0.0316 µM): 98.2% and 92.9% and 117% | viability, T/C (compound 0.1 µM): 110% and 96.3% and 103% | IC50 (curve of compound): > 0.1 µM
